{"source": "patent US10702572B2", "about": "“Methods and compounds to suppress viral genome release and packaging” (Carnegie Mellon University, priority 2015, dated 2020)", "key": {"[1]": {"system": "HSV-1, strain DM2.1 (a resistant isolate)", "experiment": "Plaque reduction assay in HFF cells", "type": "cell-based", "settings": "Human alphaherpesvirus 1, HFF", "procedure": "(§1) E-377 and DM2.1 strains of HSV-1 as well as the MS strain of HSV-2 were a gift of Jack Hill (Burroughs Wellcome). HCMV strain AD169 and VZV strain Ellen were obtained from the American Type Culture Collection (ATCC, Manassas, Va.).\n(§2) Monolayers of HFF cells were prepared in six-well plates and incubated at 37° C. for 2 d to allow the cells to reach confluency. Media was then aspirated from the wells and 0.2 ml of virus was added to each of three wells to yield 20-30 plaques in each well. The virus was allowed to adsorb to the cells for 1 h and the plates were agitated every 15 minutes. Compounds were diluted in assay media consisting of MEM with Earl's salts supplemented with 2% FBS, L-glutamine, penicillin, and gentamycin. Solutions ranging from 300 μM to 0.1 μM were added to duplicate wells and the plates were incubated for various times, depending on the virus used. For HSV-1 and -2, the monolayers were then stained with 1% crystal violet in 20% methanol and the unbound dye removed by washing with dH2O. For all other assays, the cell monolayer was stained with 1% Neutral Red solution for 4 h then the stain was aspirated and the cells were washed with PBS. For all assays, plaques were enumerated using a stereomicroscope and the concentration of compound that reduced plaque formation by 50% (EC50) was interpolated from the experimental data."}, "HSV-2, strain G": {"system": "HSV-2, strain G", "experiment": "Plaque reduction assay in HFF cells", "type": "cell-based", "settings": "for EC50: reduces viral replication by 50%"}, "in vitro": {"experiment": "in vitro", "settings": "human"}, "VZV, strain Ellen": {"system": "VZV, strain Ellen", "experiment": "Plaque reduction assay in HFF cells", "type": "cell-based", "settings": "for EC50: Human alphaherpesvirus 3, reduces viral replication by 50%; for EC90: Human alphaherpesvirus 3, reduces viral replication by 90%", "procedure": "HCMV strain AD169 and VZV strain Ellen were obtained from the American Type Culture Collection (ATCC, Manassas, Va.).\nas §2, with “PBS.” for “PBS. For all assays, plaques were enumerated using a stereomicroscope and the concentration of compound that reduced plaque formation by 50% (EC50) was interpolated from the experimental data.”\nHowever, unlike assays for HSV-1, HSV-2, MCMV and CMV compounds (where the compound is added to cells prior to virus addition), virus particles are not used in infection in assays for VZV where latent virus in the cells is induced to undergo a lytic infection, since the virions are unstable and infected cells. Thus, in the VZV study, bPEI is added to cell solution and virus is induced from within the cell by induction of lytic infectious cycle."}, "LD50 in rat": {"experiment": "LD50 in rat", "settings": "conversion in brackets"}, "[2]": {"settings": "rat; cited from earlier work"}, "[3]": {"experiment": "LD50 (species not stated)", "type": "in vivo", "settings": "conversion in brackets"}, "[4]": {"settings": "cited from earlier work"}, "[5]": {"system": "packaged viral DNA in the capsid", "settings": "low-salt buffer, Mg2+ removed by EDTA", "text": "(§3) [formula] […] Single-Molecule Fluorescence Measurements of Phage Ejection Ensemble Kinetics.\nPhage particles were imaged using a Nikon 2000E2 microscope with a spinning disk confocal scan head (Yokagawa Industries, Tokyo, Japan)."}, "phage λ": {"system": "phage λ", "experiment": "Intracapsid DNA transition temperature by ITC and SAXS", "set-up": "species or system bacteriophage λ", "settings": "78% WT DNA length phage λ, 20 mM EDTA added to 10 mM MgCl2 Tris-buffer", "text": "WT bacteriophage λ cI857, with a genome length of 48.5 kb was produced by thermal induction of lysogenic E. coli strain AE1 derived from the 52773 strain. Two phage λ mutants with shorter genome lengths (78 and 94% of the WT DNA length) were produced using a similar procedure. The receptor was the LamB protein purified from pop 154, a strain of E. coli K12 in which the LamB gene has been transduced from Shigella sonnei 3070. Phage and LamB purification details are described in Evilevitch A., et al., Osmotic pressure inhibition of DNA ejection from phage. Proc. Natl. Acad. Sci. U.S.A. 2003; 100:9292-9295 and Ivanovska I., et al., Internal DNA pressure modifies stability of WT phage. Proc. Natl. Acad. Sci. U.S.A. 2007; 104:9603-9608.\nAll calorimetric measurements were performed using the MicroCal iTC200 system manufactured by GE Healthcare, Life Sciences. […] J. Mol. Biol. 2010; 395:1079-1087.\nSmall angle X-ray scattering (SAXS) measurements were carried out at the 12-ID B station at the Advanced Photon Source at Argonne National Laboratory. A 12-KeV X-ray beam was used to illuminate the sample with an overall scattering vector q range from 0.006 to 0.850 Å-1. A total of 120 μl of phage solution (˜5×1013 pfu/ml) was injected into a flow-through glass capillary and the solution was oscillated during the SAXS measurement with a flow rate of 10 μl/s. Forty scans with 1 s X-ray exposure time were collected and averaged for each sample. A buffer solution of the dialysis buffer for phage samples was measured using the same SAXS setup, which was further subtracted as the background. After the background subtraction, the scattered intensity I versus q was plotted and the DNA peak region was truncated from 0.18 Å-1 to 0.33 Å-1. This DNA diffraction peak was fitted with a Gaussian curve plus a linear background using function (1), where q0 is the peak center, w is the peak width, A0 is the peak area, k is the slope of the linear background and c is the offset.\nas §3\nITC and SAXS assays were used to determine DNA transition temperatures for WT λ-DNA length phage in MgCl2 Tris-buffer with MgCl2 concentrations varied between 5 and 50 mM, see FIGS. 3A-3C. The intracapsid DNA transition occurs at temperature T*, corresponding to either a discontinuity in the linear dependence of ΔHej on temperature (FIG. 3A) or to an abrupt change in the linear decay of the DNA diffraction peak area versus temperature measured by SAXS (FIG. 3B). DNA transition temperatures as a function of Mg-concentration determined by both techniques are in good agreement with each other and are summarized in FIG. 3C. […] However, the inventors have previously shown that at DNA packing density in phage λ, the screening effect of Mg-ions will become progressively smaller with increasing Mg-concentration due to the counter-ion saturation (Evilevitch A., et al., Effects of salt concentrations and bending energy on the extent of ejection of phage genomes. Biophys. J. 2008; 94:1110-1120). Furthermore, if the Mg ion concentration continues to increase, the counterions are forced into regions on the helices that begin to increase the effective repulsions between packaged DNA strands. […]"}, "DNA [6]": {"system": "DNA", "settings": "literature values; cited from earlier work"}, "HSV-1, strain E-377": {"system": "HSV-1, strain E-377", "experiment": "Plaque reduction assay in HFF cells", "type": "cell-based", "settings": "Human alphaherpesvirus 1, HFF", "procedure": "as §1, §2"}, "HCMV, strain AD169": {"system": "HCMV, strain AD169", "experiment": "Plaque reduction assay in HFF cells", "type": "cell-based", "settings": "Human betaherpesvirus 5, AD169, HFF", "procedure": "as §1, §2"}, "DNA [7]": {"system": "DNA", "experiment": "DNA condensation, internal experimental observations, dint", "type": "biochemical", "settings": "0.15-2.50 mM"}, "cell membrane": {"system": "cell membrane", "settings": "cited from earlier work"}, "[8]": {"experiment": "Parallel cytotoxicity assay in uninfected HFF cells", "settings": "human"}, "HSV-1, HSV-2, VZV, HCMV": {"system": "HSV-1, HSV-2, VZV, HCMV", "experiment": "Antiviral screening study of condensing compounds", "type": "cell-based", "settings": "result in words", "procedure": "PAMAM Dendrimer G0, branched polyethylenimine (bPEI), Arg5+, DAB-AM-4, and DAB-AM-8 were utilized as test compounds. These compounds are described above.\nas §2"}, "[9]": {"settings": "CC50, parallel to HSV-1 E-377 assay, reduces cell viability by 50%"}, "[10]": {"settings": "CC50, parallel to HSV-2 strain G assay"}, "[11]": {"settings": "CC50, parallel to VZV Ellen assay"}}, "note": "Read-outs that look alike come from different tables or passages of the source. Where no end group is shown, it is not given here."}
{"compound": "Nc1nc2c(ncn2COCCO)c(=O)[nH]1", "note": "[Acyclovir, reference compound]", "values": [{"measurement": "EC50", "setting": "[1]", "result": "> 150", "unit": "µM"}, {"measurement": "EC90", "setting": "[1]", "result": "> 150", "unit": "µM"}, {"measurement": "EC50", "setting": "HSV-2, strain G; Human alphaherpesvirus 2, HFF", "result": 3.69, "unit": "µM"}, {"measurement": "EC50", "setting": "HSV-2, strain G", "result": 2.88, "unit": "µM"}, {"measurement": "CC50", "setting": "in vitro; CC50, parallel to HSV-1 DM2.1 assay", "result": "> 150", "unit": "µM"}, {"measurement": "CC50", "setting": "in vitro; [9]", "result": "> 150", "unit": "µM"}, {"measurement": "CC50", "setting": "in vitro; [10]", "result": "> 150", "unit": "µM"}, {"measurement": "CC50", "setting": "in vitro; [11]", "result": "> 150", "unit": "µM"}, {"measurement": "EC50", "setting": "VZV, strain Ellen", "result": 5.14, "unit": "µM"}, {"measurement": "EC90", "setting": "VZV, strain Ellen", "result": 23.8, "unit": "µM"}]}
{"compound": "CCCCCCCCCCCCCCCC[N+](C)(C)C.[Br-]", "note": "[CTAB, hexadecyltrimethylammonium bromide]", "values": [{"measurement": "LD50 as concentration", "setting": "LD50 in rat", "result": "~1.1", "unit": "mM"}, {"measurement": "LD50", "setting": "[2]", "result": 410, "unit": "mg/kg"}]}
{"compound": "O=C(O)[C@@H](S)[C@@H](S)C(=O)O", "note": "[DMSA, meso-2,3-Dimercaptosuccinic acid]", "values": [{"measurement": "LD50 as concentration", "setting": "[3]", "result": "~27.5", "unit": "mM"}, {"measurement": "LD50", "setting": "[4]; species and route not given", "result": 5011, "unit": "mg/kg"}]}
{"compound": "CCCCCCCCCCCC[N+](C)(C)C.[Br-]", "note": "[DTAB, dodecyltrimethylammonium bromide]", "values": [{"measurement": "LD50 as concentration", "setting": "LD50 in rat", "result": "0.6 to 3.2", "unit": "mM"}, {"measurement": "LD50", "setting": "[2]", "result": "200 to 1000", "unit": "mg/kg"}]}
{"compound": "O=C(O)CN(CCN(CC(=O)O)CC(=O)O)CC(=O)O", "note": "[EDTA, Ethylenediaminetetraacetic acid]", "values": [{"measurement": "DNA ejection from the capsid", "setting": "[5]", "result": "essentially stalled"}, {"measurement": "infection", "setting": "[5]", "result": "no infection is observed"}, {"measurement": "DNA transition temperature T*", "setting": "phage λ", "result": "~36", "unit": "°C"}]}
{"compound": "O=C(O)CN(CCOCCOCCN(CC(=O)O)CC(=O)O)CC(=O)O", "note": "[EGTA, Ethylene glycol-bis(2-aminoethylether)-N,N,N′,N′-tetraacetic acid]", "values": [{"measurement": "LD50 as concentration", "setting": "[3]", "result": "~9.5", "unit": "mM"}, {"measurement": "LD50", "setting": "[4]; in vivo", "result": 3587, "unit": "mg/kg"}]}
{"compound": "NCCNC(=O)CCN(CCC(=O)NCCN)CCN(CCC(=O)NCCN)CCC(=O)NCCN", "note": "[PAMAM Dendrimer G0, PAMAM dendrimer, ethylenediamine core, generation 0.0 solution]", "values": [{"measurement": "dint (DNA condensation observed experimentally)", "setting": "DNA [6]", "result": 31, "unit": "Å"}, {"measurement": "EC50", "setting": "HSV-1, strain E-377; concentration that reduces viral replication by 50%, various trials, each with its control", "result": 0.29, "unit": "µM"}, {"measurement": "EC90", "setting": "HSV-1, strain E-377; concentration that reduces viral replication by 90%", "result": "> 3", "unit": "µM"}, {"measurement": "EC50", "setting": "HCMV, strain AD169; reduces viral replication by 50%", "result": "> 0.6", "unit": "µM"}, {"measurement": "EC90", "setting": "HCMV, strain AD169; reduces viral replication by 90%", "result": "> 0.6", "unit": "µM"}, {"measurement": "dint, internal observations", "setting": "DNA [7]", "result": "32-35.2 Å"}, {"measurement": "EC50", "setting": "HSV-2, strain G; Human alphaherpesvirus 2, HFF", "result": 0.09, "unit": "µM"}, {"measurement": "EC90", "setting": "HSV-2, strain G; Human alphaherpesvirus 2, HFF, reduces viral replication by 90%", "result": "> 3", "unit": "µM"}, {"measurement": "permeation of the cell membrane", "setting": "cell membrane; compound alone, previously shown", "result": "permeate the cell membrane"}, {"measurement": "EC50", "setting": "VZV, strain Ellen", "result": "> 0.6", "unit": "µM"}, {"measurement": "EC90", "setting": "VZV, strain Ellen", "result": "> 0.6", "unit": "µM"}, {"measurement": "CC50", "setting": "[8]; CC50, parallel to HCMV AD169 assay", "result": 1.39, "unit": "µM"}, {"measurement": "CC50", "setting": "[8]; [9]", "result": 3.79, "unit": "µM"}, {"measurement": "CC50", "setting": "[8]; [10]", "result": 4.77, "unit": "µM"}, {"measurement": "CC50", "setting": "[8]; [11]", "result": 1.17, "unit": "µM"}]}
{"compound": "CCCCCCCCCCCCCC[N+](C)(C)C.[Br-]", "note": "[TTAB, myristyltrimethylammonium bromide]", "values": [{"measurement": "LD50 as concentration", "setting": "LD50 in rat", "result": "~11.6", "unit": "mM"}, {"measurement": "LD50", "setting": "[2]", "result": 3900, "unit": "mg/kg"}]}
{"compound": "RRRRR [Arg5+]", "values": [{"measurement": "permeation of the cell membrane", "setting": "cell membrane; not told", "result": "permeate the cell membrane"}, {"measurement": "antiviral activity in the screening study", "setting": "HSV-1, HSV-2, VZV, HCMV", "result": "showed antiviral activity"}]}
